From PMC8322070, “A novel orally active HDAC6 inhibitor T-518 shows a therapeutic potential for Alzheimer’s disease and tauopathy in mice” (Scientific Reports, 2021)

Experiments:
[1] = tested on: acetylated tubulin in hippocampus; test: In vivo pharmacodynamics: acetylated tubulin in hippocampus (ELISA); conditions: 0.3–300 mg/kg orally, 4 h after administration, C57BL/6J mice
Procedure: T-518, ACY-738, Ricolinostat, and Tubastatin A were synthesized in Takeda. For in vitro cellular experiments, the compounds were solubilized with DMSO and diluted in the culture medium at the indicated concentrations. For in vivo experiments, the compound was reconstituted in 0.5% methylcellulose and administered orally at the indicated doses. After administration, mouse hippocampus was isolated and homogenized in RIPA extraction buffer (50 mM Tris–HCl, 150 mM NaCl, 1% NP-40, 0.5% sodium deoxycholate, and 0.1% SDS, pH 8.0) supplemented with protease and phosphatase inhibitor cocktail (Thermo Fischer, Waltham, MA, USA). The homogenate was centrifuged at 10,000g for 15 min and the supernatant was taken as the RIPA-soluble fraction.
Acetylated α-tubulin and total tubulin levels were measured by sandwich ELISA. Ninety six-well plates (Microlite2+, Thermo) were coated with α-tubulin capture antibody (1:100) by overnight incubation at 4 °C, washed 4 times with PBS'T, treated with blocking buffer (1% bovine serum albumin in PBS'T) at 37 °C for 2 h, and washed another 4 times with PBS’T. Cell or tissues lysate was added to the wells and plates were incubated at 37 °C for 2 h. […]

human HDAC7 = biological target: T1, human HDAC7 (Homo sapiens, UniProt Q8WUI4); test: HDAC enzyme assay (HDAC-Glo class IIa), HDAC7; format: biochemical; conditions: concentrations up to 10 μM
T1 construct: purchased SignalChem Pharmaceutical Inc
T1 sequence (Q8WUI4 1-952): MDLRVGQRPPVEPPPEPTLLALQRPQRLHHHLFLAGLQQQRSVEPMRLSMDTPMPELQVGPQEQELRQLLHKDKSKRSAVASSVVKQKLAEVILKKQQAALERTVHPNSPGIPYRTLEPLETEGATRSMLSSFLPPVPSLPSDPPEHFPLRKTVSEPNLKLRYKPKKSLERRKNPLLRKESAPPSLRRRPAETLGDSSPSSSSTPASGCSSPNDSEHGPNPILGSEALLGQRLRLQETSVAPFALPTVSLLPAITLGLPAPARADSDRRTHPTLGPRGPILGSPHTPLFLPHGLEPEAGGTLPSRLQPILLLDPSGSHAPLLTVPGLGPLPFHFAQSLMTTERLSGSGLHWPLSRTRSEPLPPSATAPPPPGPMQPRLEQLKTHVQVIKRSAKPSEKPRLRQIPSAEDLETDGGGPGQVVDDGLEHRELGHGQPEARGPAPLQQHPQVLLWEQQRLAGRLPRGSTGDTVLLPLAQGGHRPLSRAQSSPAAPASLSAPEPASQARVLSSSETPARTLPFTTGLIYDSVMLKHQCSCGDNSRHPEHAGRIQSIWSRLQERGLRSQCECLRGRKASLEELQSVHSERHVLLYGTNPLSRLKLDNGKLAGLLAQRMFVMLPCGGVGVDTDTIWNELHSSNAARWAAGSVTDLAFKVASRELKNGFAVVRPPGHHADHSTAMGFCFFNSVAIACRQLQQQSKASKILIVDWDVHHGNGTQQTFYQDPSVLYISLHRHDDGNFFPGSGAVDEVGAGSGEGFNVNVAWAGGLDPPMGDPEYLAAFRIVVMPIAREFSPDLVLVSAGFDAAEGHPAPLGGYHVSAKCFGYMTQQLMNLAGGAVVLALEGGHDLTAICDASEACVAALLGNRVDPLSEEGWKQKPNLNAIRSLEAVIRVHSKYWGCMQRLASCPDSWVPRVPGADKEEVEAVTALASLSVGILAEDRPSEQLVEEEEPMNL
Procedure: (§1) Recombinant HDAC6, HDAC7, HDAC1 were obtained from SignalChem Pharmaceutical Inc. (Richmond, BC, Canada), and recombinant human HDAC4 was prepared at Takeda pharmaceutical company. One μL of T-518 diluted with DMSO was added to 75 μL of assay buffer (24 mM Tris–HCl (pH 7.5), 135 mM NaCl, 0.35 mM KCl, 1 mM MgCl2, 0.01% Tween 20, 0.6 mM GSH) in 384 well plates. Two μL of diluted compounds were added to 384 well plates and 2 μL of recombinant HDAC enzymes was added and then centrifuged at 1000 rpm for 10 s. The final concentrations of each HDAC enzyme were as follows, human HDAC1, 170 pM; human HDAC6, […]; human HDAC4, 68 pM; human HDAC7, 13 pM. After incubation for 60 min at room temperature, 4 μL of HDAC-Glo reagent [HDAC-Glo I/II (Promega) for HDAC6 and HDAC1, HDAC-Glo class IIa (Promega) for HDAC4 and HDAC7] was added to start the reaction. After incubation for 20 min at room temperature, the luminescence was measured by Envision plate reader (PerkinElmer, Waltham, MA, USA). For experiments under the condition of 0 min preincubation, 4 μL of HDAC-Glo reagent was added at first to the 384 well plates including diluted compounds. […] After centrifugation at 1000 rpm for 10 s. and then incubation for 20 min at room temperature, the luminescence was measured by Envision. […] The inhibitory activity of T-518 was expressed as the value of IC50. […]

HDAC1‒5, 7‒9, and 11 = test: HDAC selectivity panel (Reaction Biology Corporation); format: biochemical; conditions: up to 10 μM; heat map Fig. 2A
human HDAC1 = biological target: T2, human HDAC1 (Homo sapiens, UniProt Q13547); test: HDAC enzyme assay (HDAC-Glo I/II), HDAC1; format: biochemical; conditions: concentrations up to 10 μM
T2 construct: purchased SignalChem Pharmaceutical Inc
T2 sequence (Q13547 whole entry): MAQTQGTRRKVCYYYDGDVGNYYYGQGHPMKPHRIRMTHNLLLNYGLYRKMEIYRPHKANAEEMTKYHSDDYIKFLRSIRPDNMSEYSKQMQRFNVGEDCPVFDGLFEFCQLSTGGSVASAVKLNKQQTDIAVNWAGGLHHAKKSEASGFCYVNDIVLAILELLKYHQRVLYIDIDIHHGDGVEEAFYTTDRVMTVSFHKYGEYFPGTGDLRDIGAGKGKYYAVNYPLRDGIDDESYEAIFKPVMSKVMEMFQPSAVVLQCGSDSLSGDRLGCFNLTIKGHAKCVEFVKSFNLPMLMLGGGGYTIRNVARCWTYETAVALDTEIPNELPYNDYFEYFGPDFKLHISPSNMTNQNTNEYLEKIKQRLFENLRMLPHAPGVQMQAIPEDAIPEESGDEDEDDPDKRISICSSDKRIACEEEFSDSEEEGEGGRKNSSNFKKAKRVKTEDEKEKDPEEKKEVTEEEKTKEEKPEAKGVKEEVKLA
Procedure: as §1

## O=C1c2cc(-c3nnc(C(F)F)o3)cnc2CN1[C@@H]1CCCC[C@H]1NC(=O)C(F)(F)C(F)(F)F [T-518, N-[(1R,2R)-2-{3-[5-(difluoromethyl)-1,3,4-oxadiazol-2-yl]-5-oxo-5H,6H,7H-pyrrolo[3,4-b]pyridin-6-yl}cyclohexyl]-2,2,3,3,3-pentafluoropropanamide]
[1]
  tubulin acetylation in hippocampi: dose-dependently increased tubulin acetylation
Human HDAC7
  inhibition of human HDAC7 enzyme activity: did not obviously inhibit
HDAC1‒5, 7‒9, and 11
  inhibition of HDAC1‒5, 7‒9, and 11 in HDAC panel: does not inhibit
Human HDAC1
  inhibition of human HDAC1 enzyme activity: did not obviously inhibit
